Measurements from ChEMBL document CHEMBL1201862, “PubChem BioAssay data set” (2004).
Blank lines part the entries; values can stand above or below the compound they belong to. The source made the active and inactive calls.

Key:
Bcl-2-like protein 10 = Bcl-2-like protein 10 (Homo sapiens, UniProt Q9HD36); experiment: displacers of TR3 peptide from Bcl-B, primary screen, selectivity assay for Bfl-1 inhibitor project, biochemical, fluorescence polarization, FITC-TR3 peptide (AID 748);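 further: fluorescence polarization from a fluorescein-labelled TR3 peptide binding purified Bcl-B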
Chain of Bcl-2-like protein 10 (Q9HD36 whole entry): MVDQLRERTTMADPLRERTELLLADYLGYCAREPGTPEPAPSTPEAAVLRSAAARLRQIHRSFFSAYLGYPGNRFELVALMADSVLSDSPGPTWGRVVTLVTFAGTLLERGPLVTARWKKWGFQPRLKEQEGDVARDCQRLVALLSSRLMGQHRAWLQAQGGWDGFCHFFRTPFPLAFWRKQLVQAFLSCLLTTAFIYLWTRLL

[1] = molecular target: FAD-linked sulfhydryl oxidase ALR (Homo sapiens, UniProt P55789); experiment: inhibitors of human ALR sulfhydryl oxidase, dose response, biochemical, H2O2 detection, luminescence, cherry-pick (AID 493248)
Chain of FAD-linked sulfhydryl oxidase ALR (P55789 whole entry): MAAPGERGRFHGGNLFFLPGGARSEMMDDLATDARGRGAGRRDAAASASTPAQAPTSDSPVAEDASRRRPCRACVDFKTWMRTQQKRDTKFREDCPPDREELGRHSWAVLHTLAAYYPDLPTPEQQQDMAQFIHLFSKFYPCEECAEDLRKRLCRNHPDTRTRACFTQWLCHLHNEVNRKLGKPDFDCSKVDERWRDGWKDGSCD

[2] = Cytotoxicity screening for potential Inhibitors of Bacterial Capsule Biogenesis. [Related pubchem assays (depositor defined):AID488970]; assay type: functional
[3] = molecular target: Sphingosine 1-phosphate receptor 4 (Homo sapiens, UniProt O95977); experiment: Late-stage fluorescence dose response cell-based assay to identify agonists of the Sphingosine 1-Phosphate Receptor 4 (S1P4): purchased compounds EC50. [Related pubchem assays (depositor defined):AID1509, AID1523, AID1563, AID1686, AID1701, AID1801]; assay type: functional
Chain of Sphingosine 1-phosphate receptor 4 (O95977 whole entry): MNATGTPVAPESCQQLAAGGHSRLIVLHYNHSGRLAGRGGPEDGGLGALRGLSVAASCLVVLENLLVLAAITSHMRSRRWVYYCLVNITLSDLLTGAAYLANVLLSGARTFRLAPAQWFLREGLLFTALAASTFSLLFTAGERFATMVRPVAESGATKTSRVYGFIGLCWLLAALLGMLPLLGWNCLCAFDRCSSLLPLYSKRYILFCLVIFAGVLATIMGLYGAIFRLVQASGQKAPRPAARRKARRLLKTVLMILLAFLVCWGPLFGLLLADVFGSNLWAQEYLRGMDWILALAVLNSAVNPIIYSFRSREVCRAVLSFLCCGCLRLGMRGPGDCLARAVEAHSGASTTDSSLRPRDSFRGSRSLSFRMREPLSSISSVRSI

Trypsin = Trypsin (Sus scrofa, UniProt P00761); experiment: porcine trypsin inhibitors, dose response, selectivity assay for Rce1 protease inhibitor project, biochemical, quenched peptide fluorescence, cherry-pick (AID 488789)
Chain of Trypsin (P00761 whole entry): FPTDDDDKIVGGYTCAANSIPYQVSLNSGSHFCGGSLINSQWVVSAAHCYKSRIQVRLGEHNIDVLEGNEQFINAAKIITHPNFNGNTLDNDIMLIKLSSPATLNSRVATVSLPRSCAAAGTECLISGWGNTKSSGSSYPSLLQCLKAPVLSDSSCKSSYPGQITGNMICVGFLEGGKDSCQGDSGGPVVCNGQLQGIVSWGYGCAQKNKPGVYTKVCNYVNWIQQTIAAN

CAAX prenyl protease 1 = CAAX prenyl protease 1 (Saccharomyces cerevisiae S288c, UniProt P47154); experiment: Ste24 protease inhibitors, dose response, biochemical, S. cerevisiae, plate reader, cherry-pick (AID 488815)
Chain of CAAX prenyl protease 1 (P47154 whole entry): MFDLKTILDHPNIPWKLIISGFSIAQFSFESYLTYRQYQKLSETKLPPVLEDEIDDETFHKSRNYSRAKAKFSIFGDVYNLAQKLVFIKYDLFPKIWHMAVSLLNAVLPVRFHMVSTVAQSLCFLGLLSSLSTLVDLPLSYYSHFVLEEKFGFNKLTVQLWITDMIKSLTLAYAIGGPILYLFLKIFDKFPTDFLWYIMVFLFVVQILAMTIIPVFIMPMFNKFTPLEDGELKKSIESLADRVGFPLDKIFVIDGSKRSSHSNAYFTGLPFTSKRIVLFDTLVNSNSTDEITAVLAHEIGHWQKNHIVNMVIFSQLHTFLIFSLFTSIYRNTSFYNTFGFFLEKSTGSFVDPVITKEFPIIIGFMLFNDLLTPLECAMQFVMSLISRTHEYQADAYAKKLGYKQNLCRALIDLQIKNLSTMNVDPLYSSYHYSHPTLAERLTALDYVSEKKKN

Ephrin type-A receptor 4 = Ephrin type-A receptor 4 (Mus musculus, UniProt Q03137); experiment: inhibitors of EphA4 binding to KYL peptide, primary screen, biochemical, colorimetric, mouse EphA4 (AID 689); assay type: functional
Chain of Ephrin type-A receptor 4 (Q03137 whole entry): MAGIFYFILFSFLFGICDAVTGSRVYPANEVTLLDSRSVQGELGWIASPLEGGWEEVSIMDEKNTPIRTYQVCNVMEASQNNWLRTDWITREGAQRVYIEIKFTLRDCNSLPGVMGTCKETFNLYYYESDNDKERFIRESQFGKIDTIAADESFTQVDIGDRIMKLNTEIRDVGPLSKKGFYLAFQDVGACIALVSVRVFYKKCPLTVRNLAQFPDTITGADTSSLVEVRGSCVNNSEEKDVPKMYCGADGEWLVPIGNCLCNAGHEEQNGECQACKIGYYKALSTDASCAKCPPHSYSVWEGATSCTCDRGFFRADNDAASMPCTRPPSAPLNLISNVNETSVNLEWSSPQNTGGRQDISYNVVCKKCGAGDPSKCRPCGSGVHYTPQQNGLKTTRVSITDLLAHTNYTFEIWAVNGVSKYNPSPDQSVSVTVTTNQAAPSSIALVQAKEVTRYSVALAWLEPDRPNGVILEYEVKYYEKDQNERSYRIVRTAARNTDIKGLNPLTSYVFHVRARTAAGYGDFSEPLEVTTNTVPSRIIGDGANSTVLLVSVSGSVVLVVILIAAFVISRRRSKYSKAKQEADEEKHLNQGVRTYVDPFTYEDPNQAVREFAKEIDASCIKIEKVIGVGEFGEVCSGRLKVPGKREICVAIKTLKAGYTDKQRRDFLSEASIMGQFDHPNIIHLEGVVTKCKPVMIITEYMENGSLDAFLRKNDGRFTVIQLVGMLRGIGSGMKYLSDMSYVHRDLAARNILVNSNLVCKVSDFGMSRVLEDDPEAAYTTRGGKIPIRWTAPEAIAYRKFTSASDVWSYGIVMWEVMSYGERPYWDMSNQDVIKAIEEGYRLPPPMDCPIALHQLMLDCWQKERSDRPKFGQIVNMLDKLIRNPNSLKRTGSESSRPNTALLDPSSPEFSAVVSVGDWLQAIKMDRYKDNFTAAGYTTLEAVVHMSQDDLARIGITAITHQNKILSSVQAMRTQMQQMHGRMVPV

CAAX prenyl protease 2 = molecular target: T1, CAAX prenyl protease 2 (Saccharomyces cerevisiae S288c, UniProt Q03530); assay type: biochemical
T1 sequence (Q03530 whole entry): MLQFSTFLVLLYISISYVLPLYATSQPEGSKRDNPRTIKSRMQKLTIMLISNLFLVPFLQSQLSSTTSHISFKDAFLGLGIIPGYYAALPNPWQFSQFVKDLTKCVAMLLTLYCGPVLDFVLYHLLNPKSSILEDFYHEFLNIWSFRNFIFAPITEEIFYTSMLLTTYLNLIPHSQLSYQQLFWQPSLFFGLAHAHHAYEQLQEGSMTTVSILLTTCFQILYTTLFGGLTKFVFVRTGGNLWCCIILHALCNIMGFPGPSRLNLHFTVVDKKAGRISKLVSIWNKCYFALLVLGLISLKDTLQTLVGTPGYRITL

[4] = molecular target: 1-acylglycerol-3-phosphate O-acyltransferase ABHD5/Perilipin-5 (Homo sapiens, UniProt Q00G26+Q8WTS1); experiment: Luminescence-based biochemical high throughput dose response assay for inhibitors of the interaction of the lipase co-activator protein, abhydrolase domain containing 5 (ABHD5) with perilipin-5 (MLDP; PLIN5) (2K validation set). [Related pubchem assays (depositor defined):AID493035, AID493241]
Chain of 1-acylglycerol-3-phosphate O-acyltransferase ABHD5/Perilipin-5 (Q00G26 whole entry, the tested form may be a part): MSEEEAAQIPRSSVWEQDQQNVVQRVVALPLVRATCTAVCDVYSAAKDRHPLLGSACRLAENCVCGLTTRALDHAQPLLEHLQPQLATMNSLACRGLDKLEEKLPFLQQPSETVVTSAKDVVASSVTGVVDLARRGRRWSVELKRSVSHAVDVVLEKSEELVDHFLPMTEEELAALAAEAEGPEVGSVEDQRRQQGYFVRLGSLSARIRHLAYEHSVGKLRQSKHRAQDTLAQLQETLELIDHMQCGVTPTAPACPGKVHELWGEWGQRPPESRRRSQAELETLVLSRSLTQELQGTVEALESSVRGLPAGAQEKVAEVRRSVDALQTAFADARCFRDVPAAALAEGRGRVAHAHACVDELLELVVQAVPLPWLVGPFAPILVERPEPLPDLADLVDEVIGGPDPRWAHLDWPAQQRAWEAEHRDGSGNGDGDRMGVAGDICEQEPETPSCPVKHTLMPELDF
Chain of 1-acylglycerol-3-phosphate O-acyltransferase ABHD5/Perilipin-5 (Q8WTS1 whole entry, the tested form may be a part): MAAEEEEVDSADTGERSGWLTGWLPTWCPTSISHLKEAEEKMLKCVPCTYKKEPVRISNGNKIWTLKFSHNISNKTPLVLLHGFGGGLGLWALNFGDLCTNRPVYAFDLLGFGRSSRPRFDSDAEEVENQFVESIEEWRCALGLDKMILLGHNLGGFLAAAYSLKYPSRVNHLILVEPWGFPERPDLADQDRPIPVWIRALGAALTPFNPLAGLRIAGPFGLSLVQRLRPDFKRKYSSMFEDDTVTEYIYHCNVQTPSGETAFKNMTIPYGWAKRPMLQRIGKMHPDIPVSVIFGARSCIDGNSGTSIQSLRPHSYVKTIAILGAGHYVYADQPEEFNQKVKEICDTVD

Perilipin-1/ABHD5 = Perilipin-1/ABHD5 (Homo sapiens, UniProt O60240+Q8WTS1); experiment: Luminescence-based biochemical high throughput dose response assay for inhibitors of the interaction of the lipase co-activator protein, abhydrolase domain containing 5 (ABHD5) with perilipin-1 (PLIN1) (2K validation set). [Related pubchem assays (depositor defined):AID493027, AID493057]
Chain of Perilipin-1/ABHD5 (Q8WTS1 whole entry, the tested form may be a part): as above
Chain of Perilipin-1/ABHD5 (O60240 whole entry, the tested form may be a part): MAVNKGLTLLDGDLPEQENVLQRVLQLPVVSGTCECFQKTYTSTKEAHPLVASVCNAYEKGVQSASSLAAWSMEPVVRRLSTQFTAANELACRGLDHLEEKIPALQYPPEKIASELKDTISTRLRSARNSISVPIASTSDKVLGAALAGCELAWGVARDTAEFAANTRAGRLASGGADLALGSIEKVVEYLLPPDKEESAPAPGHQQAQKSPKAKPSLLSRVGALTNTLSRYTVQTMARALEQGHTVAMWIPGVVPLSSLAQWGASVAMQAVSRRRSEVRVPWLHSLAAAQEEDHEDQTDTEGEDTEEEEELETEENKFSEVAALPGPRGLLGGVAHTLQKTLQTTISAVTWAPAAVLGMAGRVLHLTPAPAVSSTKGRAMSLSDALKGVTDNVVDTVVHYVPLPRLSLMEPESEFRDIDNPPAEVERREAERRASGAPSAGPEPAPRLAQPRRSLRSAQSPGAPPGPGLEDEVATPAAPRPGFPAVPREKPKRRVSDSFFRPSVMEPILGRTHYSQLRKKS

IC50 (Bcl-2-like protein 10): > 100 µM (inactive)
SMILES: CCn1ccc(C(=O)Nc2ccc(S(=O)(=O)Nc3ccccc3OC)cc2)n1

AC50 [1]: 1.34 µM (active)
SMILES: O=C(Nc1ccncc1)c1ccc2ncsc2c1
CC50 [2]: > 100 µM (active)

EC50 [3]: > 50 µM (inactive)
SMILES: Cc1ccc(OCC(=O)Nc2ccc(Cl)cc2)c([N+](=O)[O-])n1

AC50 (Trypsin): 16.6 µM (active) | AC50 (CAAX prenyl protease 1): 3.92 µM (active) | IC50 (Ephrin type-A receptor 4): > 100 µM (not active) | AC50 (CAAX prenyl protease 2): 22 µM (active)
SMILES: O=C(O)c1ccc(CN(c2ccccn2)S(=O)(=O)c2ccccc2)cc1

IC50 [4]: 21.7 µM (inactive) | IC50 (Perilipin-1/ABHD5): 19 µM (inactive)
SMILES: CC1(c2ccccc2)CC(C)(C)N2C(=O)C(=O)c3cccc1c32 (stereo not given)
